Assay type in all cases: functional
Experiment [1] can be described thus: Antioxidant activity against ABTS radical assessed as trolox equivalent after 24 hr at pH 7.
A short description of experiment [2]: Antioxidant activity against ABTS radical assessed as trolox equivalent at 50 uM after 24 hr at pH 5.5.
Experiment [3] can be described thus: Antioxidant activity against ABTS radical assessed as trolox equivalent at 50 uM after 24 hr at pH >5.5.
A short description of experiment [4]: Antioxidant activity assessed as ferric ion reduction by 2,4,6-tris(2- pyridyl)-s-triazine-based spectrophotometry.

The source made the active and inactive calls. The rule behind the calls is not given here.

Take `Oc1ccc(/C=C/c2cc(O)cc(O)c2)cc1`: the Activity in experiment [1] was determined as 2.7 equiv.
Take `O=C/C=C1/C=C(C(=O)O)N[C@H](C(=O)O)C1`: the Activity in experiment [1] stood at 2.7 equiv. In addition, the result in experiment [2] was inactive. Moreover, the outcome in experiment [3] and in experiment [4] was Active.

Source of the values: ChEMBL document CHEMBL2062404, “Purification and antiradical properties of the structural unit of betalains” (J Nat Prod, 2012).
